“Also recorded” adds a separate entry of the source.
What was measured:
thymocytes [1] = test: Growth-stimulating effect of retinol on anti-CD3 activated thymocytes in the presence of interleukins; type: cell-based, BALB/c mouse; conditions: for substitution for retinol by lymphokines/cytokines: anti-CD3-activated thymocytes; for substitution for retinol by lymphokines/cytokines / CPM anti-CD3, no Retinol: no retinol; for CPM anti-CD3, no Retinol: 3 days
Experimental: Cells were cultured in serum-free medium, referred to as ITLB, containing RPMI 1640 supplemented with 8×10^-7 M insulin (5 μg/ml), 7×10^-8 M transferrin (5 μg/ml), 2×10^-6 M linoleic acid, 2×10^-6 M delipidated BSA (0.12 mg/ml), 2 mM L-glutamine, 1 mM sodium pyruvate and antibiotics. They were seeded into 96-well flat-bottom plates at varying cellular densities in a final volume of 100 μl. In control experiments, cells were cultured in medium containing 10% FCS or 3% human serum and 5×10^-5 M 2 ME. T cells and thymocytes were activated with immobilized, purified anti-mab CD3e or by the addition of Con A in the presence or absence of different concentrations of retinoids. Unless indicated otherwise, retinoids were replenished every 12 hours to maintain a reasonably constant concentration of these labile compounds in culture. […] Cultures were carried out in duplicate. Plates were incubated at 37° C. in a humidified 5% CO2 atmosphere. Cellular proliferation was determined by [^3 H] thymidine uptake (0.5 uCi/well; New England Nuclear, Boston, Mass.) after the incubation times indicated for each experiment with a 4 hour labeling pulse. Cells were harvested onto glass filter and [^3 H]TdR incorporation was determined by liquid scintillation counting. The data presented are the means of duplicate or six replicate cultures. The restriction to duplicate measurements was necessary to conserve scarce 14HRR. […] Each experiment was repeated at least twice.
Proliferation of activated thymocytes in response to interleukins in presence and absence of retinol. Purified thymocytes (5×10^5 cells/well) were activated with immobilized anti-CD3 antibody in serum-free medium in the presence or absence of interleukins and retinol (3×10^-6 M). Proliferation was assayed after three days by tritiated thymidine incorporation.

thymocytes [2] = test: as above; type: cell-based, BALB/c mouse; conditions: 3 days
T cells = test: T cell activation/proliferation; type: cell-based, murine; conditions: for substitution for retinol in T cell activation: with mitogen/anti-CD3; for activity in T cell activation relative to natural 13,14-DHR: synthetic isomers
Experimental: They were seeded into 96-well flat-bottom plates at varying cellular densities in a final volume of 100 μl. In control experiments, cells were cultured in medium containing 10% FCS or 3% human serum and 5×10^-5 M 2 ME. […] Cultures were carried out in duplicate. Plates were incubated at 37° C. in a humidified 5% CO2 atmosphere. Cellular proliferation was determined by [^3 H] thymidine uptake (0.5 uCi/well; New England Nuclear, Boston, Mass.) after the incubation times indicated for each experiment with a 4 hour labeling pulse. Cells were harvested onto glass filter and [^3 H]TdR incorporation was determined by liquid scintillation counting. The data presented are the means of duplicate or six replicate cultures. The restriction to duplicate measurements was necessary to conserve scarce 14HRR. […] Each experiment was repeated at least twice.

thymocytes [3] = test: Proliferation of anti-CD3e activated thymocytes in serum-free medium; type: cell-based, BALB/c mouse
Experimental: FIG. 14A: Purified BALB/c thymocytes were activated with immobilized anti-CD3e antibody and cultivated for four days in ITLB medium with or without retinol (3×10^-6 M), 14HRR (6×10^-7 M) (fresh 14HRR was added every 12 hours), human serum (3%) or FCS (10%) at the cellular densities shown. Proliferation was assayed by tritiated thymidine incorporation into cellular DNA. The SDs were below 20%.
FIG. 14B: BALB/c thymocytes (10^6 /ml) were added to microtiter plates coated with titrated amounts of anti-CD3e antibody with […] retinol or without, as indicated. Proliferation was measured in hexaduplicate wells on day 3 by ^3 H thymidine incorporation assay.
FIG. 14C: BALB/c thymocytes (3×10^6 /ml) were activated with anti-CD3e mAb as FIG. 1A. The total number of viable cells was determined by counting trypan blue-excluding cells, and those of blast cells by counting viable large cells in six replicate wells. Because of the relatively low cell density required in the culture (see FIG. 14A), the numbers reported for blast cells are best estimates.
Purified thymocytes (5×10^5 cells/well) were stimulated by TCR crosslinking with immobilized anti-CD3e antibody (FIG. 15A) or 0.4 μg/ml Con A (FIG. 15B) in serum-free ITLB medium. The indicated amounts of retinoids were added either once at the beginning of the experiment (marked as "1x") or every 12 hours thereafter (marked as "6x"). DNA synthesis was measured after 72 hours by tritiated thymidine uptake as described.
Purified thymocytes (10^5 cells/well) were activated with anti-CD3 antibody in ITLB medium with or without retinol (3×10^-6 M), 14HRR (6×10^-7, added every 12 hours or human serum (3%)). DNA synthesis was measured daily by a 4 hour pulse of tritiated thymidine. SDs were ≤12%.
Thymocytes (5×10^4 /well) were activated by immobilized anti-CD3 mAb in medium ITLB. Retinol (2×10^-6 M) was added at initiation of culture, or delayed by 12 hours and 24 hours, respectively, or omitted altogether. ^3 H thymidine pulses of 4 hours were used to measure DNA synthesis of hexaduplicate wells. (SDs were 20% or less.)
Thymuses of 3 to 6-week-old BALB/c mice were teased in serum-free RPMI medium supplemented with 1% BSA, 10^-6 M linoleic acid and antibiotics. Depletion of accessory cells was achieved by two cycles of complement-dependent lysis with a mixture of anti-IA^d (5 μg/ml) and anti-Itd (1:500 diluted ascites fluid). Briefly, cells were incubated on ice for 30 minutes with Ia antibodies, spun down, resuspended in 1:40 diluted rabbit complement, and incubated at 37° C. for 45 minutes. Incubations and two subsequent washes were carried out with RPMI medium containing 1% BSA. Cell viability was evaluated by trypan blue dye exclusion. To determine the extent of depletion of accessory cells, samples were stained with FITC-conjugated anti-Fc receptor antibody and analyzed by flow cytometry on a FACScan instrument (Becton Dickinson). No FcR-bearing cells were detected by this procedure.
Cells were cultured in serum-free medium, referred to as ITLB, containing RPMI 1640 supplemented with 8×10^-7 M insulin (5 μg/ml), 7×10^-8 M transferrin (5 μg/ml), 2×10^-6 M linoleic acid, 2×10^-6 M delipidated BSA (0.12 mg/ml), 2 mM L-glutamine, 1 mM sodium pyruvate and antibiotics. They were seeded into 96-well flat-bottom plates at varying cellular densities in a final volume of 100 μl. In control experiments, cells were cultured in medium containing 10% FCS or 3% human serum and 5×10^-5 M 2 ME. T cells and thymocytes were activated with immobilized, purified anti-mab CD3e or by the addition of Con A in the presence or absence of different concentrations of retinoids. Unless indicated otherwise, retinoids were replenished every 12 hours to maintain a reasonably constant concentration of these labile compounds in culture. […]

B lymphocytes [4] = test: B cell growth/survival; type: cell-based; conditions: synthetic isomers
B lymphocytes [5] = conditions: previous analyses with B lymphocytes (33); cited from earlier work
[6] = tested on: lymphoblastoid cells (LCL); conditions: serum-free medium; cited from earlier work

## TNF-alpha
Thymocytes [1]
  substitution for retinol by lymphokines/cytokines: none
  CPM anti-CD3, no Retinol: 464 ± 95 CPM
Thymocytes [1]; listed as TNF-α
  substitution for retinol by lymphokines/cytokines: does not
Thymocytes [2]
  CPM anti-CD3, 10^-6 M Retinol: 122,905 ± 11,577 CPM
T cells
  substitution for retinol in T cell activation: cannot be satisfied

## CC1=C(/C=C/C(C)=C/C=C/C(C)=C\CO)C(C)(C)CCC1 [13-cis-retinol]
Thymocytes [3]
  effectiveness relative to all-trans retinol: equally effective as all-trans retinol
T cells
  substitution for retinol in T cell activation: can substitute for retinol

## CC1=C(/C=C/C(C)=C\C=C\[C@](C)(O)[C@H](O)CO)C(C)(C)CCC1 [9-cis-(13S, 14R)-DHR]
B lymphocytes [4]
  activity in supporting B cell growth relative to natural 13,14-DHR: same activity
T cells
  activity in T cell activation relative to natural 13,14-DHR: same activity

## CC1=C(/C=C/C(C)=C/C=C/[C@@](C)(O)[C@H](O)CO)C(C)(C)CCC1 [all-trans (13R, 14R)-DHR]
B lymphocytes [4]
  activity in supporting B cell growth relative to natural 13,14-DHR: same activity
T cells
  activity in T cell activation relative to natural 13,14-DHR: same activity

## CC1=C(/C=C/C(C)=C/C=C/[C@](C)(O)[C@H](O)CO)C(C)(C)CCC1 [all-trans (13S, 14R)-DHR]
B lymphocytes [4]
  activity in supporting B cell growth relative to natural 13,14-DHR: same activity
T cells
  activity in T cell activation relative to natural 13,14-DHR: same activity

## CC1=C(/C=C/C(C)=C\C=C\[C@@](C)(O)[C@H](O)CO)C(C)(C)CCC1 [9-cis-(13R, 14R)-DHR]
B lymphocytes [4]
  activity in supporting B cell growth relative to natural 13,14-DHR: same activity
T cells
  activity in T cell activation relative to natural 13,14-DHR: same activity

## CC1=C(/C=C/C(C)=C/C=C/C(C)=C/C=O)C(C)(C)CCC1 [all-trans retinal]
Thymocytes [3]
  effectiveness relative to all-trans retinol: equally effective as all-trans retinol
B lymphocytes [5]
  concentration at which activity was demonstrated: 200 nM
[6]
  support of growth of LCL: support the growth of LCL
T cells
  substitution for retinol in T cell activation: can substitute for retinol

## IL-6: hrIL-6 purchased from Boehringer Mannheim
Thymocytes [1]
  substitution for retinol by lymphokines/cytokines: None and none
  CPM anti-CD3, no Retinol: 1,005 ± 815 CPM
Thymocytes [2]
  CPM anti-CD3, 10^-6 M Retinol: 130,590 ± 25,803 CPM

B1: IFN-gamma: mouse recombinant IFN-gamma (protein, UniProt P01580 23-155, looked up)
Interferon gamma: HGTVIESLESLNNYFNSSGIDVEEKSLFLDIWRNWQKDGDMKILQSQIISFYLRLFEVLKDNQAISNNISVIESHLITTFFSNSKAKKDAFMSIAKFEVNNPQVQRQAFNELIRVVHQLLPESSLRKRKRSRC
Thymocytes [1]
  substitution for retinol by lymphokines/cytokines: can circumvent the retinol requirement and initiate durable proliferation in the absence of retinol or 14HRR
  CPM anti-CD3, no Retinol: 81,876 ± 11,866 CPM
  synergy with retinol: strong additive effects
Thymocytes [1]; listed as interferon-gamma
  substitution for retinol by lymphokines/cytokines: can sustain thymocyte proliferation in the absence of retinol; also recorded: quite efficient in anti-CD3-mediated activation in the absence of retinol
Thymocytes [1]; listed as Interferon-gamma
  synergy with retinol: clear additive effect with retinol
Thymocytes [2]
  CPM anti-CD3, 10^-6 M Retinol: 220,359 ± 27,726 CPM
T cells
  substitution for retinol in T cell activation: can substitute for retinol

B2: IL-1: Human recombinant IL-1-α (protein, UniProt P01583 113-271, looked up)
Interleukin-1 alpha: SAPFSFLSNVKYNFMRIIKYEFILNDALNQSIIRANDQYLTAAALHNLDEAVKFDMGAYKSSKDDAKITVILRISKTQLYVTAQDEDQPVLLKEMPEIPKTITGSETNLLFFWETHGTKNYFTSVAHPNLFIATKQDYWVCLAGGPPSITDFQILENQA
Thymocytes [1]
  substitution for retinol by lymphokines/cytokines: None and none
  CPM anti-CD3, no Retinol: 959 ± 30 CPM
Thymocytes [2]
  CPM anti-CD3, 10^-6 M Retinol: 118,924 ± 3,051 CPM

B3: IL-4: murine rIL-4 (protein, UniProt P07750 21-140, looked up)
Interleukin-4: HIHGCDKNHLREIIGILNEVTGEGTPCTEMDVPNVLTATKNTTESELVCRASKVLRIFYLKHGKTPCLKKNSSVLMELQRLFRAFRCLDSSISCTMNESKSTSLKDFLESLKSIMQMDYS
Thymocytes [1]
  substitution for retinol by lymphokines/cytokines: None and none
  CPM anti-CD3, no Retinol: 991 ± 105 CPM
Thymocytes [2]
  CPM anti-CD3, 10^-6 M Retinol: 115,849 ± 20,630 CPM

— patent publication US5908868A, “Retinol derivatives useful for enhancing immune response” (priority 1995, dated 1999)
